Measurements taken from the kinase profiling compilation of Christmann-Franck et al. (2016).

How the values were obtained:
STK32B (human) = STK32B (human) (UniProt Q9NY57); experiment: KINOMEscan competition binding; conditions: compound 10.0 µM
PRKACB (human) = PRKACB (human) (UniProt P22694); experiment: KINOMEscan competition binding; conditions: compound 10.0 µM
RIPK4 (human) = RIPK4 (human) (UniProt P57078); experiment: KINOMEscan competition binding; conditions: compound 10.0 µM
[1] = biological target: TYK2 JH2 pseudokinase (human) (UniProt P29597); experiment: KINOMEscan competition binding; conditions: compound 10.0 µM
[2] = system: KIT (human), P10721 [A829P]; experiment: KINOMEscan competition binding; conditions: compound 10.0 µM
CSNK1E (human) = CSNK1E (human) (UniProt P49674); experiment: KINOMEscan competition binding; conditions: compound 10.0 µM
STK25 (human) = STK25 (human) (UniProt O00506); experiment: KINOMEscan competition binding; conditions: compound 10.0 µM
CHEK1 (human) = CHEK1 (human) (UniProt O14757); experiment: KINOMEscan competition binding; conditions: compound 10.0 µM
MAP2K3 (human) = MAP2K3 (human) (UniProt P46734); experiment: KINOMEscan competition binding; conditions: compound 10.0 µM
INSR (human) = INSR (human) (UniProt P06213); experiment: KINOMEscan competition binding; conditions: compound 10.0 µM
FLT4 (human) = FLT4 (human) (UniProt P35916); experiment: KINOMEscan competition binding; conditions: compound 10.0 µM
[3] = system: BRAF (human), P15056 [V600E]; experiment: KINOMEscan competition binding; conditions: compound 10.0 µM
[4] = system: EIF2AK4 KD2 (human), Q9P2K8 [S808G]; experiment: KINOMEscan competition binding; conditions: compound 10.0 µM
MAP2K2 (human) = MAP2K2 (human) (UniProt P36507); experiment: KINOMEscan competition binding; conditions: compound 10.0 µM
CAMK1G (human) = CAMK1G (human) (UniProt Q96NX5); experiment: KINOMEscan competition binding; conditions: compound 10.0 µM
PRPF4B (human) = PRPF4B (human) (UniProt Q13523); experiment: KINOMEscan competition binding; conditions: compound 10.0 µM
RPS6KA2 KD2 (human) = RPS6KA2 KD2 (human) (UniProt Q15349); experiment: KINOMEscan competition binding; conditions: compound 10.0 µM
MYLK (human) = MYLK (human) (UniProt Q15746)
HIPK1 (human) = HIPK1 (human) (UniProt Q86Z02)
MAP3K11 (human) = MAP3K11 (human) (UniProt Q16584)
[5] = system: AKT1 (human), P31749 [S473D]
BRSK1 (human) = BRSK1 (human) (UniProt Q8TDC3); conditions: compound 10.0 µM
GCK (human) = GCK (human) (UniProt Q12851)
MARK4 (human) = MARK4 (human) (UniProt Q96L34)
STK11 (human) = STK11 (human) (UniProt Q15831)
MARK2 (human) = MARK2 (human) (UniProt Q7KZI7)
ERBB4 (human) = ERBB4 (human) (UniProt Q15303)
RIPK2 (human) = RIPK2 (human) (UniProt O43353)
MAPK10 (human) = MAPK10 (human) (UniProt P53779)
MAP3K9 (human) = MAP3K9 (human) (UniProt P80192)
[6] = system: PAK2 (human), Q13177 [T402E]
NUAK1 (human) = NUAK1 (human) (UniProt O60285)
IRAK4 (human) = IRAK4 (human) (UniProt Q9NWZ3)
MINK1 (human) = MINK1 (human) (UniProt Q8N4C8)
HIPK3 (human) = HIPK3 (human) (UniProt Q9H422)
MAPKAPK3 (human) = MAPKAPK3 (human) (UniProt Q16644)

Chain of GCK (human) (Q12851 whole entry, looked up): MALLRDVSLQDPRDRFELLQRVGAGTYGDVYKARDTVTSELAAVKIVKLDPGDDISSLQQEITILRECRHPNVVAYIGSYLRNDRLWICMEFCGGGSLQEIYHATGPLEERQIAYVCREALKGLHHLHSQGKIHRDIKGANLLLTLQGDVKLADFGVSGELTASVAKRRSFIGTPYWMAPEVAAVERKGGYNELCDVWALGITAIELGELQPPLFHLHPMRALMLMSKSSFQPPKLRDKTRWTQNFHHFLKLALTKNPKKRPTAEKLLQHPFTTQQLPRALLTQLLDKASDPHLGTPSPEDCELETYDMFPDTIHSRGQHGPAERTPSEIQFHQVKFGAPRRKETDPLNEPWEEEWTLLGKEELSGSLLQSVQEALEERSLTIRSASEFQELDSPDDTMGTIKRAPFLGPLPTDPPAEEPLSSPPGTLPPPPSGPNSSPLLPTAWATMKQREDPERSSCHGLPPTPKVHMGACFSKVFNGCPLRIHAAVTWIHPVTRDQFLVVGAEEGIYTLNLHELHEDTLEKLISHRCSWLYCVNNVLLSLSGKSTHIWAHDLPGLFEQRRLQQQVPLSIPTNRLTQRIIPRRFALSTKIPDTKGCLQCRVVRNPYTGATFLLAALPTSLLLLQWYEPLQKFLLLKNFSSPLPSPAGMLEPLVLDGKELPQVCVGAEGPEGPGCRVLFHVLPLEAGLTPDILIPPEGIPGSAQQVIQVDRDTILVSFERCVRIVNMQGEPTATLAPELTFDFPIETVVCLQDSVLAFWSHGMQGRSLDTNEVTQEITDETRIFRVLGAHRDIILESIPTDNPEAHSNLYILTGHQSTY
Chain of MAP3K9 (human) (P80192 whole entry, looked up): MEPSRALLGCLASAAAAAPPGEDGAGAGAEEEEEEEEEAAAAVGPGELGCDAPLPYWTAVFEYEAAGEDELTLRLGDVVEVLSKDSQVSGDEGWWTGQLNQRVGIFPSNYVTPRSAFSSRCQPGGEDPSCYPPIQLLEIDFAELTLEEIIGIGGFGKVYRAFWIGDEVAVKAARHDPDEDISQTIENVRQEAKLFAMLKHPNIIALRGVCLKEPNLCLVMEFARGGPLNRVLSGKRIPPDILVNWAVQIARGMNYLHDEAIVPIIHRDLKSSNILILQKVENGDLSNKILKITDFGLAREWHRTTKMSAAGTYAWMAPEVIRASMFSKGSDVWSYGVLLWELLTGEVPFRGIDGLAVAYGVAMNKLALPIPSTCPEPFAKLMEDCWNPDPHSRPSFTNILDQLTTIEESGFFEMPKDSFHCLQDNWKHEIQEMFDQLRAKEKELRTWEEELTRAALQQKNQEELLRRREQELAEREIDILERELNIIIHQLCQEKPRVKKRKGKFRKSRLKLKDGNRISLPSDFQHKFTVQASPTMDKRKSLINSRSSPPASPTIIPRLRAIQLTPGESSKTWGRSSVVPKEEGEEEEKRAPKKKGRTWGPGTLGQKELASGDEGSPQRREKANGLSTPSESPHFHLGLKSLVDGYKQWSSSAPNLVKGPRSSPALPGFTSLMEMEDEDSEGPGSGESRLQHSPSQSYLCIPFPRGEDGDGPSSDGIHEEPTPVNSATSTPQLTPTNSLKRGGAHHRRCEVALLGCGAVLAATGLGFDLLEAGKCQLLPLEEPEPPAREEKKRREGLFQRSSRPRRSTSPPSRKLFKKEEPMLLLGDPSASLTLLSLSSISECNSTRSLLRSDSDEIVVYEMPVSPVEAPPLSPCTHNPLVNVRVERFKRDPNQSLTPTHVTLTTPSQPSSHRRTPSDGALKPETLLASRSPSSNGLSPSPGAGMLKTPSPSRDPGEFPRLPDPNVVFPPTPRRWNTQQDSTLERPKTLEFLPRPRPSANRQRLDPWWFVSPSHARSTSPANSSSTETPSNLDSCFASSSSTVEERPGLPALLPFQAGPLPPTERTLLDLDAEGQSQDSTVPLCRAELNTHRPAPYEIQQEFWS
Chain of MYLK (human) (Q15746 whole entry, looked up): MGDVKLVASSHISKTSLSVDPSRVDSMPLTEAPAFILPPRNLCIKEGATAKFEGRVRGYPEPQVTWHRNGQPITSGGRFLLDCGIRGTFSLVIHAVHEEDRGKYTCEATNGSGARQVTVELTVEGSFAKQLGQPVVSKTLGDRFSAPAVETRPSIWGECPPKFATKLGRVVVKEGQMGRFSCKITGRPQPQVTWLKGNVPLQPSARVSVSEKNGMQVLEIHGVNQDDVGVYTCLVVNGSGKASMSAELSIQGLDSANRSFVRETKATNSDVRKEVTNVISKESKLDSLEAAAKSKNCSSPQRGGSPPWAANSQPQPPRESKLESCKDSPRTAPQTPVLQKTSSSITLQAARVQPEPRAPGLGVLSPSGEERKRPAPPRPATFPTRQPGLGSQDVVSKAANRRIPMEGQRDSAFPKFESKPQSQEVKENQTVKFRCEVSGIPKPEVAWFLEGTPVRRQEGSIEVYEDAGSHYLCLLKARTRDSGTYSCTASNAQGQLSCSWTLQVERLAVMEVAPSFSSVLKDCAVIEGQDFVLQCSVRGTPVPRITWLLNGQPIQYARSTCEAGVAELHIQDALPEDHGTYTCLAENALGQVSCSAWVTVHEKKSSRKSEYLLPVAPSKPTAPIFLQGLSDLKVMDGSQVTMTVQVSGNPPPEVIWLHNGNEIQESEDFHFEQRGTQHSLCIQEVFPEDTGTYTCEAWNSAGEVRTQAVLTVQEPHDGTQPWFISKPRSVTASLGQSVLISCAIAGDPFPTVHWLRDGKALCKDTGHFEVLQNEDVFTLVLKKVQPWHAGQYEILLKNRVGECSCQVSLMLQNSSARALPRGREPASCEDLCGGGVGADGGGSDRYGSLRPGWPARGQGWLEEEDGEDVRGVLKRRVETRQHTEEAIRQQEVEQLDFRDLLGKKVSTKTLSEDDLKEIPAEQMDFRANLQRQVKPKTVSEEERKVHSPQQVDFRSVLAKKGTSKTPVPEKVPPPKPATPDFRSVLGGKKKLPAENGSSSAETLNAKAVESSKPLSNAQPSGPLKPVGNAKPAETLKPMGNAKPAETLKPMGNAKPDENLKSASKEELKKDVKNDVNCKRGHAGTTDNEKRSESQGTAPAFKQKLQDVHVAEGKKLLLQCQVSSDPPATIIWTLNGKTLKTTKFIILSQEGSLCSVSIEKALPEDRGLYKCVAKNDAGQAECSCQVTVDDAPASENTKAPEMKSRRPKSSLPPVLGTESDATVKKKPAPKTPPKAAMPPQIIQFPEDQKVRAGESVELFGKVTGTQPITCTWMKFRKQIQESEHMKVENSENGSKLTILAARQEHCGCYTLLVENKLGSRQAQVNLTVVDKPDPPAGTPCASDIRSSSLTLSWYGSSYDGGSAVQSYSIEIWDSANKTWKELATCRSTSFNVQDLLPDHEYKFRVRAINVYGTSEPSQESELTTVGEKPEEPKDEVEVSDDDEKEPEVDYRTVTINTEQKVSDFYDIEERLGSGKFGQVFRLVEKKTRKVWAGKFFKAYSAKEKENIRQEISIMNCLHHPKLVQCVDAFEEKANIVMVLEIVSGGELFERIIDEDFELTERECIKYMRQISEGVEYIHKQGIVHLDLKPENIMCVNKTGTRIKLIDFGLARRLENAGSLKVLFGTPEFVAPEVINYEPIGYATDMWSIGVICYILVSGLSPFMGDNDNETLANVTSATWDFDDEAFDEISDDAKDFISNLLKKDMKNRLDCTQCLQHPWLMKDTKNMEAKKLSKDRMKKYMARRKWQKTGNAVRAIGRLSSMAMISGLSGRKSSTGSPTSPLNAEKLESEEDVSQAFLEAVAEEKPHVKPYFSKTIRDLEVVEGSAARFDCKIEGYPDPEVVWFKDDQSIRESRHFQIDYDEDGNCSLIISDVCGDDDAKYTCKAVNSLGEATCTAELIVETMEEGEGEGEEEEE
Chain of NUAK1 (human) (O60285 whole entry, looked up): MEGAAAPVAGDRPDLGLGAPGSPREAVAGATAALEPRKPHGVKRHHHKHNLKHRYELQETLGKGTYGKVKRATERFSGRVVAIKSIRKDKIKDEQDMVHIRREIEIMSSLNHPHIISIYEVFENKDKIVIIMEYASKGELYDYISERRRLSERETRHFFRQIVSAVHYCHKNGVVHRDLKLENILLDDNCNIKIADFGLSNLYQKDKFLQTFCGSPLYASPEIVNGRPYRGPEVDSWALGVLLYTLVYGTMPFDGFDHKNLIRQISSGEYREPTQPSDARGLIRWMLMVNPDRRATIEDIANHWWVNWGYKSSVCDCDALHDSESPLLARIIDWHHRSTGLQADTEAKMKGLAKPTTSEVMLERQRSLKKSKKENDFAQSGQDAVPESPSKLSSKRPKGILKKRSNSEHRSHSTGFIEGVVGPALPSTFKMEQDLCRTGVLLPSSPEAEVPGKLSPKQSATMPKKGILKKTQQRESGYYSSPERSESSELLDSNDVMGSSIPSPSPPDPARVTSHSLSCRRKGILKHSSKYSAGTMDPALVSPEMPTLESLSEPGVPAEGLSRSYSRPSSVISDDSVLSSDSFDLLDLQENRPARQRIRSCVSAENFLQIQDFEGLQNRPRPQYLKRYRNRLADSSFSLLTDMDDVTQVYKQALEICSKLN
Chain of PAK2 (human), Q13177 [T402E] (Q13177 whole entry T402E, looked up): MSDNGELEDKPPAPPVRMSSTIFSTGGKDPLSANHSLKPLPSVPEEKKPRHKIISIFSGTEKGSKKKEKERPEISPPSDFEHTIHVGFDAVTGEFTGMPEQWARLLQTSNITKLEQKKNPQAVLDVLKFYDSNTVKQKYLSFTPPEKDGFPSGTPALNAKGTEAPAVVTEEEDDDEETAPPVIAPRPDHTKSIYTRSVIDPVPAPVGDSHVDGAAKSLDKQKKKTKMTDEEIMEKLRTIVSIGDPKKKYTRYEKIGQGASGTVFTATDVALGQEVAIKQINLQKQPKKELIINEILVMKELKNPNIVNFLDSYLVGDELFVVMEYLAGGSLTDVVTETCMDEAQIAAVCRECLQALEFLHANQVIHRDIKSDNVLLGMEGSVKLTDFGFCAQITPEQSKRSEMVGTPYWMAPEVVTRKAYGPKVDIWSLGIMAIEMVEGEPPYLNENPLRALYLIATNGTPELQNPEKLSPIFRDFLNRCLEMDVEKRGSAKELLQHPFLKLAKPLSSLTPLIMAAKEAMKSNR

Work on `COC(=O)Nc1ccc(-c2nc(N3CCOCC3)c3cnn(C4CCN(C(=O)OC)CC4)c3n2)cc1` yielded a kinase still bound, per cent of control (STK32B (human)) of 100%, a per cent of control (PRKACB (human)) of 97% and a kinase still bound, per cent of control (RIPK4 (human)) of 90%. It also gave a kinase still bound, per cent of control [1] of 78%, a kinase still bound, per cent of control [2] of 91% and a kinase still bound, per cent of control (CSNK1E (human)) of 72%. It also gave a kinase still bound, per cent of control (STK25 (human)) of 78%, a kinase still bound, per cent of control (CHEK1 (human)) of 96% and a kinase still bound, per cent of control (MAP2K3 (human)) of 95%. The kinase still bound, per cent of control (INSR (human)) was 72%, the kinase still bound, per cent of control (FLT4 (human)) was 92% and the kinase still bound, per cent of control [3] was 81%. It also gave a kinase still bound, per cent of control [4] of 88%, a kinase still bound, per cent of control (MAP2K2 (human)) of 100% and a kinase still bound, per cent of control (CAMK1G (human)) of 92%. It also gave a kinase still bound, per cent of control (PRPF4B (human)) of 100%, a kinase still bound, per cent of control (RPS6KA2 KD2 (human)) of 100% and a per cent of control (MYLK (human); compound 1.0 µM) of 97%. It also gave a per cent of control (MYLK (human); compound 10.0 µM) of 87%, a per cent of control (HIPK1 (human); compound 1.0 µM) of 85% and a per cent of control (HIPK1 (human); compound 10.0 µM) of 89%. It also gave a per cent of control (MAP3K11 (human); compound 1.0 µM) of 92%, a per cent of control (MAP3K11 (human); compound 10.0 µM) of 106% and a per cent of control ([5]; compound 1.0 µM) of 89%. The per cent of control ([5]; compound 10.0 µM) was 87%, the per cent of control (BRSK1 (human)) was 94% and the per cent of control (GCK (human); compound 1.0 µM) was 94%. It also gave a per cent of control (GCK (human); compound 10.0 µM) of 105%, a per cent of control (MARK4 (human); compound 1.0 µM) of 91% and a per cent of control (MARK4 (human); compound 10.0 µM) of 109%. The per cent of control (STK11 (human); compound 1.0 µM) was 102%, the per cent of control (STK11 (human); compound 10.0 µM) was 112% and the per cent of control (MARK2 (human); compound 1.0 µM) was 96%. It also gave a per cent of control (MARK2 (human); compound 10.0 µM) of 118%, a per cent of control (ERBB4 (human); compound 1.0 µM) of 91% and a per cent of control (ERBB4 (human); compound 10.0 µM) of 108%. For the same molecule, the per cent of control (RIPK2 (human); compound 1.0 µM) was 94%, the per cent of control (RIPK2 (human); compound 10.0 µM) was 72% and the per cent of control (MAPK10 (human); compound 1.0 µM) was 94%. For the same molecule, the per cent of control (MAPK10 (human); compound 10.0 µM) was 106%, the per cent of control (MAP3K9 (human); compound 1.0 µM) was 95% and the per cent of control (MAP3K9 (human); compound 10.0 µM) was 109%. The per cent of control ([6]; compound 1.0 µM) was 92%, the per cent of control ([6]; compound 10.0 µM) was 91% and the per cent of control (NUAK1 (human); compound 1.0 µM) was 94%. The per cent of control (NUAK1 (human); compound 10.0 µM) was 82%, the per cent of control (IRAK4 (human); compound 1.0 µM) was 107% and the per cent of control (IRAK4 (human); compound 10.0 µM) was 114%. The per cent of control (MINK1 (human); compound 1.0 µM) was 100%, the per cent of control (MINK1 (human); compound 10.0 µM) was 100% and the per cent of control (HIPK3 (human); compound 1.0 µM) was 112%. It also gave a per cent of control (HIPK3 (human); compound 10.0 µM) of 85%, a per cent of control (MAPKAPK3 (human); compound 1.0 µM) of 109% and a per cent of control (MAPKAPK3 (human); compound 10.0 µM) of 101%.
